Measurements as given in patent US20050181485A1, “Cellulose digesting enzyme gene and utilization of the gene” (priority 2002, published 2005).

test system: cellobiose dehydrogenase; format: biochemical, Coriolus hirsutus; conditions: not given

Structure (SMILES) | Relative activity | inhibition of the enzyme
[N-]=[N+]=[N-].[Na+] [NaN3, sodium azide] | 46% | weakly inhibited
O=C(O)CN(CCN(CC(=O)O)CC(=O)O)CC(=O)O [EDTA] | 45% | weakly inhibited

same assay, conditions: 1 mM

Structure (SMILES) | inhibition of the enzyme | Relative activity
CCCCCCCCCCCCOS(=O)(=O)[O-].[Na+] [SDS] | strongly inhibited | –
[Cl][Hg][Cl] [HgCl2] | strongly inhibited | –
[Cl-].[Cl-].[Co+2] [CoCl2] | – | 53%

same assay, conditions: 1 mM; incubation at 4° C. overnight

Structure (SMILES) | Relative activity
CCCCCCCCCCCCOS(=O)(=O)[O-].[Na+] [SDS] | 0%
[Cl][Hg][Cl] [HgCl2] | 0%
[Cl-].[Cl-].[Mg+2] [MgCl2] | 64%
[Ca+2].[Cl-].[Cl-] [CaCl2] | 65%
O=S(=O)([O-])[O-].[Cu+2] [CuSO4] | 82%
[Cl][Mn][Cl] [MnCl2] | 35%
[Cl-].[Cl-].[Zn+2] [ZnCl2] | 32%
[Ba+2].[Cl-].[Cl-] [BaCl2] | 71%
O=S(=O)([O-])[O-].[Fe+2] [FeSO4] | 0%
[Cl][Ni][Cl] [NiCl2] | 60%
[Cl-].[Li+] [LiCl2] | 45%
[Cl][Al]([Cl])[Cl] [AlCl2] | 23%
O=S(=O)([O-])[O-].[Zn+2] [ZnSO4] | 72%
[Cl][Cu][Cl] [CuCl2] | 53%
